No end group written: not given here.
Legend:
[1] = tested on: MMQ cells; test: 45Ca2+ uptake/efflux in MMQ (floater) cells; assay type: cell-based, rat
Procedure: The MMQ cell line was derived from the pituitary tumor 7315a, a cell line that secretes both prolactin and adrenocorticotrophin (ACTH). The MMQ cell line was obtained by cutting a 7315a tumor into small pieces and then dispersing the pieces into a population of single cells by means of incubating tumor pieces with collagenase. These cells were incubated in tissue culture flasks containing RPMI1640, 5% NHS, 5% FCS. […] The floater cells, which we have designated MMQ, were small granular and irregularly shaped in contrast to the cells that adhered to the flasks.

[2] = tested on: MMQ cells; test: cAMP levels in the MMQ cells; assay type: cell-based, rat; settings: for effect on the dopaminergic inhibition of stimulated cAMP: pertussis toxin as pre-treatment of the cells
Excerpt: Further studies included measurement of the cAMP levels in the MMQ cells.

[3] = tested on: MMQ cells
Excerpt: The non-adherent cell has been designated MMQ.
The clonal cell line MMQ, was derived from the non-adherent cells which secrete only prolactin and no detectable amounts of ACTH or any other pituitary hormones.

[4] = tested on: adherent cells of pituitary tumor 7315a
Excerpt: This isolation involved the use of the solid tumor which was dispersed with collagenase and cultured in RPMI-1640 containing normal horse and calf serum. As previously mentioned, one population is adherent to plastic-ware and the other is non-adherent.

## C=CC[C@H](C)[C@H](C)C[C@@H](O)[C@H](O)[C@@H]1CC[C@@]2(C)O[C@@]3(C)C[C@@]4(C)O[C@H]5/C=C\C[C@H]6O[C@H]7C[C@H]8O[C@H]9C[C@@]%10(C)O[C@@](C)([C@@H]%11CC[C@H]%12O[C@@]%13(C)C[C@H]%14O[C@@]%15(C)C[C@H]%16O[C@@]%17(C)C[C@@H](O)[C@H]([C@@H]%18O[C@H]%19[C@H](O)[C@@H](O)[C@H](C[C@H](O)C[C@@H](O)[C@@H]%20O[C@H]%21[C@H](O)[C@@H](O)[C@H]([C@@H]%22O[C@@H]%23[C@H](O)[C@H]%24O[C@H]%25C[C@H]%26O[C@@H](C[C@H](O)[C@@H](O)[C@H]%27O[C@H]%28[C@H](O)[C@H]%29O[C@H]%30C[C@H]%31O[C@H]%32[C@@H](O)[C@@H](O)[C@H]([C@H](C)[C@H](O)[C@H](C)CC[C@H](OS(=O)(=O)O)[C@H](O)[C@H](C)C[C@@H](O)C(=C)/C(C)=C/CO)O[C@@H]%32[C@H](O)C[C@]%31(C)O[C@@H]%30C[C@]%29(C)O[C@@H]%28C[C@H]%27O)[C@H](OS(=O)(=O)O)[C@H](O)[C@@H]%26O[C@@H]%25C[C@@H]%24O[C@H]%23[C@H](O)[C@H]%22O)O[C@H]%21C[C@H]%20O)O[C@H]%19C[C@H]%18O)O[C@@H]%17[C@H](O)[C@]%16(C)O[C@@H]%15CC[C@]%14(C)O[C@@H]%13C[C@@H]%12O%11)[C@H](O)C[C@@H]%10O[C@]9(C)CC[C@]8(C)O[C@]7(C)C[C@@H]6O[C@@H]5C[C@@H]4O[C@@H]3C[C@@H]2O1 [maitotoxin]
[1]; MMQ floater cells loaded with 45Ca2+
  response of MMQ cells to maitotoxin (45Ca2+): modest response

## C[C@H](N)C(=O)NCC(=O)N[C@H]1CSSC[C@@H](C(=O)O)NC(=O)[C@H](CO)NC(=O)[C@H]([C@@H](C)O)NC(=O)[C@H](Cc2ccccc2)NC(=O)[C@H]([C@@H](C)O)NC(=O)[C@H](CCCCN)NC(=O)[C@H](Cc2c[nH]c3ccccc23)NC(=O)[C@H](Cc2ccccc2)NC(=O)[C@H](Cc2ccccc2)NC(=O)[C@H](CC(N)=O)NC(=O)[C@H](CCCCN)NC1=O [Somatostatin]
[2]; SRIF 100 nM
  attenuation of forskolin and VIP-stimulated cAMP generation: 30%

## pertussis toxin
[2]
  effect on the dopaminergic inhibition of stimulated cAMP: blocked the dopaminergic effects

## choleratoxin
[2]
  cellular cAMP levels: increased

## C=C[C@@]1(C)CC(=O)[C@]2(O)[C@@]3(C)[C@@H](O)CCC(C)(C)[C@@H]3[C@H](O)[C@H](OC(C)=O)[C@@]2(C)O1 [forskolin]
[2]
  cellular cAMP levels: increased

## Vasoactive intestinal peptide (HSDAVFTDNYTRLRKQMAVKKYLNSILN; ends and bridges not checked; UniProt P01282 125-152, looked up) [peptide that increases cellular cAMP levels]
[2]
  cellular cAMP levels: increased

## O=C(CCCN1CCC(O)(c2ccc(Cl)cc2)CC1)c1ccc(F)cc1 [Haloperidol]
[2]
  effect on the dopaminergic inhibition of stimulated cAMP: blocked the dopaminergic effects

## NCCc1ccc(O)c(O)c1 [dopamine]
[1]; addition of dopamine, MMQ cells
  effect on maitotoxin-induced efflux of 45Ca2+: blocked
[2]; Rattus norvegicus, 1 μM of dopamine, read-out: attenuation of forskolin and VIP-stimulated cAMP generation
  inhibition at 1 µM: 50%
[2]; dopamine 50-1000 nM
  effect on VIP-, forskolin- and choleratoxin-increased cellular cAMP levels: inhibited each response in a concentration-dependent manner
[3]; MMQ cells after more than a year in culture
  effect of dopamine on prolactin-release after long-term culture: has not been altered
[3]; clonal MMQ cells
  inhibition of maitotoxin-induced prolactin release: 50-80%
[3]; non-adherent cells
  effect on prolactin release stimulated by maitotoxin: inhibits prolactin release
[4]
  effect on prolactin release stimulated by maitotoxin: not in the adherent ones
